Measured values reported in patent US20240239861A1, “GLUCAGON-RECEPTOR SELECTIVE POLYPEPTIDES AND METHODS OF USE THEREOF” (i2O Therapeutics, Inc., priority 2016, published 2024).
Where a SMILES comes first, the peptide text is derived from it. [ ]: non-standard residue; d: D form. Aib = CC(C)(N)C(=O)O

Legend:
human GLP-1R = human GLP-1R (Homo sapiens, UniProt P43220); assay: Peptide-receptor mediated cAMP accumulation (LANCE Ultra cAMP) in CHO-K1 cells transfected with human GLP-1R; type: cell-based; conditions: hGLP1 pEC50 (cAMP mean (n = 3): 11 point curve starting at 1 nM, Table 3)
human GLP-1R, sequence (P43220 24-463): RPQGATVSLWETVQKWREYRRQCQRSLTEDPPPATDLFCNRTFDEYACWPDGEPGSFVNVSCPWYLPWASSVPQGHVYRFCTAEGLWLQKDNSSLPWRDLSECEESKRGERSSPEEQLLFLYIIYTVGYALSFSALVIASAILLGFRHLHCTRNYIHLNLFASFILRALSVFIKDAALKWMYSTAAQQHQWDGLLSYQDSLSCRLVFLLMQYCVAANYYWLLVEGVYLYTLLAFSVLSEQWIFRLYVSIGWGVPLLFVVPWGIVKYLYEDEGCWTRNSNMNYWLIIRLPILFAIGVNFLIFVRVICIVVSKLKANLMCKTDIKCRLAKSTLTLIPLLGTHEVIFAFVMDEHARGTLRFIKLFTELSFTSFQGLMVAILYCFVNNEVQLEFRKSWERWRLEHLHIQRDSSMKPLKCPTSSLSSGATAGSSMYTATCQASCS

human GCGR = human GCGR (Homo sapiens, UniProt P47871); assay: Peptide-receptor mediated cAMP accumulation (LANCE Ultra cAMP) in CHO-K1 cells transfected with human GCGR; type: cell-based; conditions: Table 3
human GCGR, sequence (P47871 26-477): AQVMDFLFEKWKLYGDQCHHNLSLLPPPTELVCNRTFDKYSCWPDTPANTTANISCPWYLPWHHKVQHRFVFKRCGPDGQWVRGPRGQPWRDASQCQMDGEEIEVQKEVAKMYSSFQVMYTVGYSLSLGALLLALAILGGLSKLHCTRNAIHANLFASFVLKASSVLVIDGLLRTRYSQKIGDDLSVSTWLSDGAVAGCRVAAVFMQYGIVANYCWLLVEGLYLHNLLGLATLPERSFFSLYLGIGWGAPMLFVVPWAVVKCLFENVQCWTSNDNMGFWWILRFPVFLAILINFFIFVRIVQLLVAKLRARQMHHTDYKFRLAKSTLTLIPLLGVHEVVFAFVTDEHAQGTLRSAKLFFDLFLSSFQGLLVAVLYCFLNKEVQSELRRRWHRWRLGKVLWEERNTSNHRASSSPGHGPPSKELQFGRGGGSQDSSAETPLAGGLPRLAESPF

SMILES | EC50 (human GLP-1R) | EC50 (human GCGR)
CC(C)C[C@H](NC(=O)[C@H](Cc1ccc(O)cc1)NC(=O)[C@H](CCCCN)NC(=O)[C@H](CO)NC(=O)[C@H](Cc1ccc(O)cc1)NC(=O)[C@H](CC(=O)O)NC(=O)[C@H](CO)NC(=O)[C@@H](NC(=O)[C@H](Cc1ccccc1)NC(=O)[C@@H](NC(=O)CNC(=O)[C@H](Cc1c[nH]cn1)NC(=O)[C@H](CO)NC(=O)[C@@H](N)Cc1c[nH]c2ccccc12)[C@@H](C)O)[C@@H](C)O)C(=O)N[C@@H](CC(=O)O)C(=O)NC(C)(C)C(=O)N[C@@H](CCCCN)C(=O)N[C@@H](CCCNC(=N)N)C(=O)N[C@@H](C)C(=O)N[C@@H](CCC(N)=O)C(=O)N[C@@H](CCC(=O)O)C(=O)N[C@@H](Cc1ccccc1)C(=O)N[C@H](C(=O)NC(C)(C)C(=O)N[C@@H](Cc1c[nH]c2ccccc12)C(=O)N[C@@H](CC(C)C)C(=O)N[C@@H](CCC(=O)O)C(=O)N[C@@H](CC(=O)O)C(=O)N[C@@H](CCC(=O)O)C(=O)N1CCC[C@H]1C(=O)N[C@@H](CO)C(=O)N[C@@H](CO)C(=O)NCC(=O)N[C@@H](C)C(=O)N1CCC[C@H]1C(=O)N1CCC[C@H]1C(=O)N1CCC[C@H]1C(=O)N[C@@H](CO)C(=O)O)C(C)C [Compound A75] (H-WSHGTFTSDYSKYLD[Aib]KRAQEFV[Aib]WLEDEPSSGAPPPS-OH; N-terminus assumed) | > 1 nM | 0.00501 nM
CC(C)C[C@H](NC(=O)[C@H](Cc1ccc(O)cc1)NC(=O)[C@H](CCCCN)NC(=O)[C@H](CO)NC(=O)[C@H](Cc1ccc(O)cc1)NC(=O)[C@H](CC(=O)O)NC(=O)[C@H](CO)NC(=O)[C@@H](NC(=O)[C@H](Cc1ccccc1)NC(=O)[C@@H](NC(=O)CNC(=O)[C@H](Cc1c[nH]cn1)NC(=O)[C@H](CO)NC(=O)[C@@H](N)Cc1ccc(O)cc1)[C@@H](C)O)[C@@H](C)O)C(=O)N[C@@H](CC(=O)O)C(=O)NC(C)(C)C(=O)N[C@@H](CCCCN)C(=O)N[C@H](C(=O)N[C@@H](C)C(=O)N[C@@H](CCC(N)=O)C(=O)N[C@@H](CCC(=O)O)C(=O)N[C@@H](Cc1ccccc1)C(=O)N[C@H](C(=O)NC(C)(C)C(=O)N[C@@H](Cc1c[nH]c2ccccc12)C(=O)N[C@@H](CC(C)C)C(=O)N[C@@H](CCC(=O)O)C(=O)N[C@@H](CC(=O)O)C(=O)N[C@@H](CCC(=O)O)C(=O)N1CCC[C@H]1C(=O)N[C@@H](CO)C(=O)N[C@@H](CO)C(=O)NCC(=O)N[C@@H](C)C(=O)N1CCC[C@H]1C(=O)N1CCC[C@H]1C(=O)N1CCC[C@H]1C(=O)N[C@@H](CO)C(=O)O)C(C)C)[C@@H](C)O [Compound A77] (H-YSHGTFTSDYSKYLD[Aib]KTAQEFV[Aib]WLEDEPSSGAPPPS-OH; N-terminus assumed) | > 1 nM | 0.00316 nM
CC(C)C[C@H](NC(=O)[C@H](CCCCN)NC(=O)C(C)(C)NC(=O)[C@H](CC(=O)O)NC(=O)[C@H](CC(C)C)NC(=O)[C@H](Cc1ccc(O)cc1)NC(=O)[C@H](CCCCN)NC(=O)[C@H](CO)NC(=O)[C@H](Cc1ccc(O)cc1)NC(=O)[C@H](CC(=O)O)NC(=O)[C@H](CO)NC(=O)[C@@H](NC(=O)[C@H](Cc1ccccc1)NC(=O)[C@@H](NC(=O)CNC(=O)[C@H](Cc1c[nH]cn1)NC(=O)[C@H](CO)NC(=O)[C@@H](N)Cc1ccc(O)cc1)[C@@H](C)O)[C@@H](C)O)C(=O)N[C@@H](C)C(=O)N[C@@H](CCC(N)=O)C(=O)N[C@@H](CCC(=O)O)C(=O)N[C@@H](Cc1ccccc1)C(=O)N[C@H](C(=O)NC(C)(C)C(=O)N[C@@H](Cc1c[nH]c2ccccc12)C(=O)N[C@@H](CC(C)C)C(=O)N[C@@H](CCC(=O)O)C(=O)N[C@@H](CC(=O)O)C(=O)N[C@@H](CCC(=O)O)C(=O)N1CCC[C@H]1C(=O)N[C@@H](CO)C(=O)N[C@@H](CO)C(=O)NCC(=O)N[C@@H](C)C(=O)N1CCC[C@H]1C(=O)N1CCC[C@H]1C(=O)N1CCC[C@H]1C(=O)N[C@@H](CO)C(=O)O)C(C)C [Compound A78] (H-YSHGTFTSDYSKYLD[Aib]KLAQEFV[Aib]WLEDEPSSGAPPPS-OH; N-terminus assumed) | > 1 nM | 0.0158 nM
CC(C)C[C@H](NC(=O)[C@H](Cc1ccc(O)cc1)NC(=O)[C@H](CCCCN)NC(=O)[C@H](CO)NC(=O)[C@H](Cc1ccc(O)cc1)NC(=O)[C@H](CC(=O)O)NC(=O)[C@H](CO)NC(=O)[C@@H](NC(=O)[C@H](Cc1ccccc1)NC(=O)[C@@H](NC(=O)CNC(=O)[C@H](Cc1c[nH]cn1)NC(=O)[C@H](CO)NC(=O)[C@@H](N)Cc1ccc(O)cc1)[C@@H](C)O)[C@@H](C)O)C(=O)N[C@@H](CC(=O)O)C(=O)NC(C)(C)C(=O)N[C@@H](CCCCN)C(=O)N[C@@H](CCC(=O)O)C(=O)N[C@@H](C)C(=O)N[C@@H](CCC(N)=O)C(=O)N[C@@H](CCC(=O)O)C(=O)N[C@@H](Cc1ccccc1)C(=O)N[C@H](C(=O)NC(C)(C)C(=O)N[C@@H](Cc1c[nH]c2ccccc12)C(=O)N[C@@H](CC(C)C)C(=O)N[C@@H](CCC(=O)O)C(=O)N[C@@H](CC(=O)O)C(=O)N[C@@H](CCC(=O)O)C(=O)N1CCC[C@H]1C(=O)N[C@@H](CO)C(=O)N[C@@H](CO)C(=O)NCC(=O)N[C@@H](C)C(=O)N1CCC[C@H]1C(=O)N1CCC[C@H]1C(=O)N1CCC[C@H]1C(=O)N[C@@H](CO)C(=O)O)C(C)C [Compound A79] (H-YSHGTFTSDYSKYLD[Aib]KEAQEFV[Aib]WLEDEPSSGAPPPS-OH; N-terminus assumed) | > 1 nM | 0.0631 nM
CC(C)C[C@H](NC(=O)[C@H](Cc1ccc(O)cc1)NC(=O)[C@H](CCCCN)NC(=O)[C@H](CO)NC(=O)[C@H](Cc1ccc(O)cc1)NC(=O)[C@H](CC(=O)O)NC(=O)[C@H](CO)NC(=O)[C@@H](NC(=O)[C@H](Cc1ccccc1)NC(=O)[C@@H](NC(=O)CNC(=O)[C@H](CCC(N)=O)NC(=O)[C@H](CO)NC(=O)[C@@H](N)Cc1ccc(O)cc1)[C@@H](C)O)[C@@H](C)O)C(=O)N[C@@H](CC(=O)O)C(=O)N[C@@H](CO)C(=O)N[C@@H](C)C(=O)N[C@@H](CCCNC(=N)N)C(=O)N[C@@H](C)C(=O)N[C@@H](CCC(N)=O)C(=O)N[C@@H](CCC(=O)O)C(=O)N[C@@H](Cc1ccccc1)C(=O)N[C@H](C(=O)N[C@@H](CCCCN)C(=O)N[C@@H](Cc1c[nH]c2ccccc12)C(=O)N[C@@H](CC(C)C)C(=O)N[C@@H](CCC(=O)O)C(=O)N[C@@H](CC(=O)O)C(=O)N[C@@H](CCC(=O)O)C(=O)N1CCC[C@H]1C(=O)N[C@@H](CCCCN)C(=O)N[C@@H](CO)C(=O)N[C@@H](CCCCN)C(=O)N[C@@H](CO)C(=O)N1CCC[C@H]1C(=O)N1CCC[C@H]1C(=O)N1CCC[C@H]1C(=O)N[C@@H](CO)C(=O)O)C(C)C [Compound A81] (H-YSQGTFTSDYSKYLDSARAQEFVKWLEDEPKSKSPPPS-OH; N-terminus assumed) | > 1 nM | 0.01 nM
